According to patent US20240132431A1, “METHOD FOR ALKYLATING ACIDIC FUNCTIONAL GROUP” (Chugai Seiyaku Kabushiki Kaisha, priority 2021, published 2024):
One block for each molecule: values may come before it.

Target: T1, Bcl-2 protein (Recombinant Human Bcl-2 Protein) (Homo sapiens, UniProt P10415)
T1 construct: purchased Novus NBP2-34889
Assay: Binding evaluation of mixture library compounds to Bcl-2 using AS-MS (affinity selection mass spectrometry)
Details: for ASMS ratio (%) n = 1 / ASMS ratio (%) n = 2: ASMS Ratio(%)=(A−C)/B×100; for ASMS ratio (%) n = 1: replicate n = 1; for ASMS ratio (%) n = 2: replicate n = 2
Outline: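 Bcl-2 binding is scored from LC/MS signal retained with protein through gel-filtration spin columns, normalised to unfiltered and protein-free controls. Incubation: 20 μM protein, […] per compound, 1 h, 23° C.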

[1] = AS-MS, mixture of 1200 compounds, Bcl-2
[2] = AS-MS on the mixture of 1200 library compounds

T1 sequence (P10415 whole entry): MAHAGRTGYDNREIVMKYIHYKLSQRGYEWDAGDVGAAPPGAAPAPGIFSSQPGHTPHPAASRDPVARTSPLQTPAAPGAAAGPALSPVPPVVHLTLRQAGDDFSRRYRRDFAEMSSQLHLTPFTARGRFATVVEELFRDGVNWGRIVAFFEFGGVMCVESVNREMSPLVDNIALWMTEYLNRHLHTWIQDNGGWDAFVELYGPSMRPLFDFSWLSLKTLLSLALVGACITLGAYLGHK

Molecule: 4-[4-[3-[4-(5-Ethoxypyridin-3-yl)pyrazol-1-yl]-5-(trifluoromethyl)benzoyl]piperazin-1-yl]-N-propylbenzamide [B1M031-01]
ASMS ratio (%) n = 1 [1]: 0.0%
ASMS ratio (%) n = 2 [1]: −2.4%

Molecule: CCOc1cccc(-c2csc(C(=O)N3CCN(c4ccc(C(=O)NS(=O)(=O)C(C)(C)C)nn4)CC3)c2)c1 [B2L001-01, N-tert-Butylsulfonyl-6-[4-[4-(3-ethoxyphenyl)thiophene-2-carbonyl]piperazin-1-yl]pyridazine-3-carboxamide]
ASMS ratio (%) (n = 1): −67.5%
ASMS ratio (%) (n = 2): 0.0%

Molecule: CCOc1cccc(-c2csc(C(=O)N3CCN(c4ccc(C(=O)N(CC)CC)cc4)CC3)c2)c1 [B4J023-01, 4-[4-[4-(3-Ethoxyphenyl)thiophene-2-carbonyl]piperazin-1-yl]-N,N-diethylbenzamide]
ASMS ratio (%) n = 1 [2]: 3.5%
ASMS ratio (%) n = 2 [2]: −3.4%

Molecule: CCOc1cccc(-c2cc(CN3CCN(c4ccc(C(=O)NS(=O)(=O)C(C)(C)C)nn4)CC3)cc(OC(F)(F)F)c2)c1 [B2L089-01, N-tert-Butylsulfonyl-6-[4-[[3-(3-ethoxyphenyl)-5-(trifluoromethoxy)phenyl]methyl]piperazin-1-yl]pyridazine-3-carboxamide]
ASMS ratio (%) (n = 1): 0.0%
ASMS ratio (%) (n = 2): 0.0%

Molecule: CCOc1cccc(-c2cc(CN3CCN(c4ccc(C(=O)NS(=O)(=O)c5ccc(NCCSc6ccccc6)c([N+](=O)[O-])c5)nn4)CC3)cc(OC(F)(F)F)c2)c1 [B2Q089-01, 6-[4-[[3-(3-Ethoxyphenyl)-5-(trifluoromethoxy)phenyl]methyl]piperazin-1-yl]-N-[3-nitro-4-(2-phenylsulfanylethylamino)phenyl]sulfonylpyridazine-3-carboxamide]
ASMS ratio (%) n = 1 (AS-MS, mixture library, Bcl-2): 25.0%
ASMS ratio (%) n = 2 (AS-MS, mixture library, Bcl-2): 15.0%

Molecule: 4-[4-[1-[4-(5-Ethoxypyridin-3-yl)-2-fluorophenyl]ethyl]piperazin-1-yl]-N-propylbenzamide [B1M006-01]
ASMS ratio (%) n = 1 [1]: 0.0%
ASMS ratio (%) n = 2 [1]: 0.0%

Further lines, results first:

ASMS ratio (%) n = 1 [1]: −1.6%
ASMS ratio (%) n = 2 [1]: −4.7%
Molecule: CCOc1cncc(-c2ccc(C(=O)N3CCN(c4ccc(C(=O)NCC56CC7CC(CC(C7)C5)C6)cc4)CC3)cc2F)c1 [B1A028-01, N-(1-Adamantylmethyl)-4-[4-[4-(5-ethoxypyridin-3-yl)-3-fluorobenzoyl]piperazin-1-yl]benzamide]

ASMS ratio (%) (n = 1): 0.0%
ASMS ratio (%) (n = 2): 0.0%
Molecule: CCOc1cccc(C#Cc2cncc(C(=O)N3CCN(c4ccc(C(=O)NS(=O)(=O)C(C)(C)C)nn4)CC3)c2)c1 [B2L009-01, N-tert-Butylsulfonyl-6-[4-[5-[2-(3-ethoxyphenyl)ethynyl]pyridine-3-carbonyl]piperazin-1-yl]pyridazine-3-carboxamide]

ASMS ratio (%) n = 1 (AS-MS, mixture library, Bcl-2): 5.8%
ASMS ratio (%) n = 2 (AS-MS, mixture library, Bcl-2): −7.3%
Molecule: CCOc1cccc(-c2cc(CN3CCN(c4ccc(C(=O)NS(=O)(=O)CC56CC7CC(CC(C7)C5)C6)cc4)CC3)cc(OCC)c2)c1 [B2A055-01, N-(1-Adamantylmethylsulfonyl)-4-[4-[[3-ethoxy-5-(3-ethoxyphenyl)phenyl]methyl]piperazin-1-yl]benzamide]

ASMS ratio (%) n = 1 (AS-MS, mixture library, Bcl-2): 0.0%
ASMS ratio (%) n = 2 (AS-MS, mixture library, Bcl-2): 0.0%
Molecule: CCOc1cncc(-c2ccc(C(=O)N3CCN(c4ccc(C(=O)NS(=O)(=O)CC56CC7CC(CC(C7)C5)C6)nn4)CC3)cc2F)c1 [B2A006-01, N-(1-Adamantylmethylsulfonyl)-6-[4-[4-(5-ethoxypyridin-3-yl)-3-fluorobenzoyl]piperazin-1-yl]pyridazine-3-carboxamide]

ASMS ratio (%) (n = 1): 0.0%
ASMS ratio (%) (n = 2): 0.0%
Molecule: CCOc1cccc(-c2ccc(CN3CCN(c4ccc(C(=O)NS(C)(=O)=O)cc4)CC3)c(OC)c2)c1 [B2I053-01]

ASMS ratio (%) n = 1 [2]: 12.4%
ASMS ratio (%) n = 2 [2]: −0.3%
Molecule: CCOc1cccc(-c2csc(C(=O)N3CCN(c4ccc(C(=O)Nc5ccc(OC)cc5)cc4)CC3)c2)c1 [B1O023-01, 4-[4-[4-(3-Ethoxyphenyl)thiophene-2-carbonyl]piperazin-1-yl]-N-(4-methoxyphenyl)benzamide]
